From a melting point compilation (Tetko et al.)

Compared with O=C(O)c1cccc(CS(=O)(=O)c2ccccc2)c1, Nc1cccc(CS(=O)c2ccccc2)c1 (centres undefined) is lower in melting point: 194 to 196 °C for the first, 133 to 135 °C for the second.

First: COc1ccc2c(c1)OCC(C#N)=C2
Second: COc1ccc(C)c(N)c1
The melting point of the first is higher: 93 to 95 °C for the first, 43 to 46 °C for the second.

Compared with NS(=O)(=O)NCc1ccccc1, CCCC(NC(=O)Cc1ccccc1)C(=O)O (centres undefined) is higher in melting point: 107 to 109 °C for the first, 133 to 135 °C for the second.

Compared with Cc1ncc(C=CC(=O)O)s1, CNS(=O)(=O)c1cc(/C=C/C(=O)O)ccc1OC is higher in melting point: 194 to 196 °C for the first, 238 to 240 °C for the second.

Compared with O=C(O)c1cc(S(=O)(=O)N2CCCCC2)ccc1N1CCCCC1, CCN(CC)c1ccc(S(=O)(=O)N2CCOCC2)cc1N is lower in melting point: 143 to 145 °C for the first, 99 to 101 °C for the second.

Compared with CCCCCCNC(=O)CCl, CC(C)(CO)NCCO is higher in melting point: 29 to 31 °C for the first, 73 to 75 °C for the second.

First: Cc1nc(O)ccc1Br
Second: Cc1ccnc(Cl)c1O
The melting point of the first is higher: 199 to 201 °C for the first, 97 to 99 °C for the second.

First: Cc1cc(Br)cc2c1NC(=O)C2
Second: Nc1cc2c(cc1F)CCC(=O)N2
The melting point of the first is higher: 224 to 226 °C for the first, 174 to 176 °C for the second.

First: Nc1ccc(Br)cc1S(=O)(=O)N1CCOCC1
Second: Nc1ccc(C(=O)N2CCOCC2)cc1
The melting point of the first is higher: 142 to 144 °C for the first, 134 to 136 °C for the second.

First: CCOc1ccc(S(=O)(=O)NCC(=O)O)cc1
Second: O=C(O)CCCOc1ccc(S(=O)(=O)Cl)cc1Cl
The melting point of the first is higher: 139 to 141 °C for the first, 134 to 136 °C for the second.

Compared with N#CCn1c(C(=O)O)cc2ccccc21, O=C(O)Cn1c(=O)[nH]c2ccccc2c1=O is higher in melting point: 192 to 194 °C for the first, 295 to 297 °C for the second.

Compared with CC(O)C1CCCCN1C(=O)OC(C)(C)C (centres undefined), CC(C)(C)OC(=O)NCC1CCCCS1 (centres undefined) is higher in melting point: 46 to 48 °C for the first, 70 to 72 °C for the second.

First: CC(C)(C)c1nnn[nH]1
Second: CCNc1ccc(C)nn1
The melting point of the first is higher: 203 to 205 °C for the first, 99 to 101 °C for the second.

First: Cc1ccc(N2C(=O)CCC(C(=O)O)C2c2cccs2)cc1 (centres undefined)
Second: Cc1cccc2nc(CSc3ccccc3C(=O)O)cc(=O)n12
The melting point of the first is higher: 249 to 251 °C for the first, 211 to 213 °C for the second.

First: CC(C)C(NC(=O)c1ccc([N+](=O)[O-])cc1Cl)C(=O)O (centres undefined)
Second: CC(Oc1ccc(F)cc1Cl)C(=O)O (centres undefined)
The melting point of the first is higher: 145 to 147 °C for the first, 72 to 74 °C for the second.

First: Cc1cc(C(=O)Cl)sc1C
Second: CC(=O)Nc1cc2c(cc1C)OCO2
The melting point of the first is lower: 59 to 61 °C for the first, 164 to 166 °C for the second.

First: Cc1ncc(Br)n1C
Second: Cc1nccn1-c1ccc(N)cn1
The melting point of the first is lower: 92 to 94 °C for the first, 160 to 162 °C for the second.

First: Cn1ccc(C(=O)O)c1
Second: O=C(O)c1ccc(F)c(S)c1
The melting point of the first is lower: 144 to 146 °C for the first, 163 to 165 °C for the second.

Compared with COc1ccc(S(N)(=O)=O)cc1NC(=O)CCl, Cc1cc(S(=O)(=O)Cl)ccc1OC(C)C is lower in melting point: 169 to 171 °C for the first, 50 to 52 °C for the second.

First: Nc1ccc2c(c1)CCC(=O)N2Cc1ccc(Cl)cc1
Second: Cc1ccc(C)n1-c1ccc(CN)cc1
The melting point of the first is higher: 142 to 144 °C for the first, 61 to 63 °C for the second.

First: NC(=O)c1cc(-c2ccccc2)sc1NC(=O)CCl
Second: O=C(O)c1nc(NCc2ccccc2)ncc1Cl
The melting point of the first is higher: 208 to 210 °C for the first, 165 to 167 °C for the second.

Compared with CC(Cl)c1nnc(-c2ccc(F)cc2)o1 (centres undefined), O=[N+]([O-])c1ccc(-c2nnc(O)o2)cc1 is higher in melting point: 67 to 69 °C for the first, 249 to 251 °C for the second.

First: NN1C(=O)CNC1=O
Second: O=C1NC(=O)C(=O)C(=O)N1
The melting point of the first is lower: 190 to 192 °C for the first, 255 to 257 °C for the second.

First: O=C(CCl)Nc1cc(-n2cnnn2)ccc1Cl
Second: Sc1nncn1-c1ccccc1
The melting point of the first is higher: 179 to 181 °C for the first, 172 to 174 °C for the second.

Compared with Cc1cc(C(=O)O)on1, O=C(O)c1cc2c(s1)CCOC2 is lower in melting point: 199 to 201 °C for the first, 148 to 150 °C for the second.

First: Nc1ccc(S(=O)(=O)Nc2cccc(C(F)(F)F)c2)cc1
Second: O=C(O)c1cccnc1Nc1cccc(F)c1
The melting point of the first is lower: 113 to 115 °C for the first, 202 to 204 °C for the second.

First: CNC1(CO)CCC(c2ccccc2)CC1 (centres undefined)
Second: O=C(O)CNC(=O)COc1ccccc1
The melting point of the first is higher: 127 to 129 °C for the first, 89 to 91 °C for the second.

First: Clc1ccc(Br)c2ccccc12
Second: C1=CCC(c2nc3ccccc3[nH]2)CC1 (centres undefined)
The melting point of the first is lower: 62 to 64 °C for the first, 209 to 211 °C for the second.

First: Nc1ccc(I)cc1O
Second: Nc1cc(Br)c[nH]c1=S
The melting point of the first is lower: 104 to 106 °C for the first, 190 to 192 °C for the second.

Compared with O=C(O)C1=Cc2cc(F)ccc2OC1, O=C(O)c1ccc(Oc2cccnc2)cc1 is lower in melting point: 209 to 211 °C for the first, 204 to 206 °C for the second.

First: CCC(=O)c1ccc(OC(F)F)cc1
Second: Cc1ccc(CNCCO)cc1
The melting point of the first is lower: 39 to 43 °C for the first, 62 to 64 °C for the second.

First: Cc1ccc(NC(=S)NN)cc1C
Second: CCN(CC)S(=O)(=O)c1ccc(NCCO)c(N)c1
The melting point of the first is higher: 176 to 178 °C for the first, 157 to 159 °C for the second.

First: C#CCNC(=O)c1ccccc1N
Second: CC(C)CC(=O)N1Cc2ccccc2CC1C(=O)O (centres undefined)
The melting point of the first is lower: 96 to 98 °C for the first, 169 to 171 °C for the second.

First: O=C(O)c1n[nH]c(=O)[nH]c1=O
Second: O=C(O)c1cccnc1-n1ccnc1
The melting point of the first is higher: 224 to 226 °C for the first, 179 to 181 °C for the second.

Compared with CS(=O)(=O)Nc1ccc(S(=O)(=O)Cl)c(F)c1, NS(=O)(=O)c1cnccn1 is higher in melting point: 149 to 151 °C for the first, 166 to 168 °C for the second.

First: O=S1(=O)C=CCC1
Second: c1cc2c(s1)C1(CCNCC1)OCC2
The melting point of the first is lower: 62 to 64 °C for the first, 95 to 97 °C for the second.

First: NC(=O)CCn1c(S)nnc1-c1cccs1
Second: Nc1cccnn1
The melting point of the first is higher: 219 to 221 °C for the first, 169 to 171 °C for the second.
